Laboratory results from US8642609B2, “Modulators of ATP-binding cassette transporters” (Vertex Pharmaceuticals Incorporated, priority 2003, dated 2014).

Molecular target: T1, ΔF508-CFTR (Homo sapiens, UniProt P13569, DEL508-508)
T1 construct: expressed in transfected cells
Assay: Membrane potential optical assay (FRET/VIPR), identification of correction compounds
Format: cell-based
Conditions: for Emax: relative efficacy
Description: I) Membrane Potential Optical Methods for Assaying ΔF508-CFTR Modulation Properties of Compounds
The optical membrane potential assay utilized voltage-sensitive FRET sensors described by Gonzalez and Tsien (See, Gonzalez, J. E. and R. Y. Tsien (1995) “Voltage sensing by fluorescence resonance energy transfer in single cells” Biophys J 69(4): 1272-80, and Gonzalez, J. E. and R. Y. Tsien (1997) “Improved indicators of cell membrane potential that use fluorescence resonance energy transfer” Chem Biol 4(4): 269-77) in combination with instrumentation for measuring fluorescence changes such as the Voltage/Ion Probe Reader (VIPR) (See, Gonzalez, J. E., K. Oades, et al. (1999) “Cell-based assays and instrumentation for screening ion-channel targets” Drug Discov Today 4(9): 431-439).
These voltage sensitive assays are based on the change in fluorescence resonant energy transfer (FRET) between the membrane-soluble, voltage-sensitive dye, DiSBAC2(3), and a fluorescent phospholipid, CC2-DMPE, which is attached to the outer leaflet of the plasma membrane and acts as a FRET donor. Changes in membrane potential (Vm) cause the negatively charged DiSBAC2(3) to redistribute across the plasma membrane and the amount of energy transfer from CC2-DMPE changes accordingly. The changes in fluorescence emission were monitored using VIPR™ II, which is an integrated liquid handler and fluorescent detector designed to conduct cell-based screens in 96- or 384-well microtiter plates.
Identification of Correction Compounds
To identify small molecules that correct the trafficking defect associated with ΔF508-CFTR; a single-addition HTS assay format was developed. The cells were incubated in serum-free medium for 16 hrs at 37° C. in the presence or absence (negative control) of test compound. As a positive control, cells plated in 384-well plates were incubated for 16 hrs at 27° C. to “temperature-correct” ΔF508-CFTR. The cells were subsequently rinsed 3× with Krebs Ringers solution and loaded with the voltage-sensitive dyes. To activate ΔF508-CFTR, 10 μM forskolin and the CFTR potentiator, genistein (20 μM), were added along with Cl^−-free medium to each well. The addition of Cl^−-free medium promoted Cl^− efflux in response to ΔF508-CFTR activation and the resulting membrane depolarization was optically monitored using the FRET-based voltage-sensor dyes.
NIH3T3 mouse fibroblasts stably expressing ΔF508-CFTR are used for optical measurements of membrane potential. The cells are maintained at 37° C. in 5% CO2 and 90% humidity in Dulbecco's modified Eagle's medium supplemented with 2 mM glutamine, 10% fetal bovine serum, 1×NEAA, β-ME, 1× pen/strep, and 25 mM HEPES in 175 cm^2 culture flasks. For all optical assays, the cells were seeded at 30,000/well in 384-well matrigel-coated plates and cultured for 2 hrs at 37° C. before culturing at 27° C. for 24 hrs. for the potentiator assay. For the correction assays, the cells are cultured at 27° C. or 37° C. with and without compounds for 16-24 hours B) Electrophysiological Assays for assaying ΔF508-CFTR modulation properties of compounds

T1 sequence (P13569 with tags, fused parts or gaps DEL508-508): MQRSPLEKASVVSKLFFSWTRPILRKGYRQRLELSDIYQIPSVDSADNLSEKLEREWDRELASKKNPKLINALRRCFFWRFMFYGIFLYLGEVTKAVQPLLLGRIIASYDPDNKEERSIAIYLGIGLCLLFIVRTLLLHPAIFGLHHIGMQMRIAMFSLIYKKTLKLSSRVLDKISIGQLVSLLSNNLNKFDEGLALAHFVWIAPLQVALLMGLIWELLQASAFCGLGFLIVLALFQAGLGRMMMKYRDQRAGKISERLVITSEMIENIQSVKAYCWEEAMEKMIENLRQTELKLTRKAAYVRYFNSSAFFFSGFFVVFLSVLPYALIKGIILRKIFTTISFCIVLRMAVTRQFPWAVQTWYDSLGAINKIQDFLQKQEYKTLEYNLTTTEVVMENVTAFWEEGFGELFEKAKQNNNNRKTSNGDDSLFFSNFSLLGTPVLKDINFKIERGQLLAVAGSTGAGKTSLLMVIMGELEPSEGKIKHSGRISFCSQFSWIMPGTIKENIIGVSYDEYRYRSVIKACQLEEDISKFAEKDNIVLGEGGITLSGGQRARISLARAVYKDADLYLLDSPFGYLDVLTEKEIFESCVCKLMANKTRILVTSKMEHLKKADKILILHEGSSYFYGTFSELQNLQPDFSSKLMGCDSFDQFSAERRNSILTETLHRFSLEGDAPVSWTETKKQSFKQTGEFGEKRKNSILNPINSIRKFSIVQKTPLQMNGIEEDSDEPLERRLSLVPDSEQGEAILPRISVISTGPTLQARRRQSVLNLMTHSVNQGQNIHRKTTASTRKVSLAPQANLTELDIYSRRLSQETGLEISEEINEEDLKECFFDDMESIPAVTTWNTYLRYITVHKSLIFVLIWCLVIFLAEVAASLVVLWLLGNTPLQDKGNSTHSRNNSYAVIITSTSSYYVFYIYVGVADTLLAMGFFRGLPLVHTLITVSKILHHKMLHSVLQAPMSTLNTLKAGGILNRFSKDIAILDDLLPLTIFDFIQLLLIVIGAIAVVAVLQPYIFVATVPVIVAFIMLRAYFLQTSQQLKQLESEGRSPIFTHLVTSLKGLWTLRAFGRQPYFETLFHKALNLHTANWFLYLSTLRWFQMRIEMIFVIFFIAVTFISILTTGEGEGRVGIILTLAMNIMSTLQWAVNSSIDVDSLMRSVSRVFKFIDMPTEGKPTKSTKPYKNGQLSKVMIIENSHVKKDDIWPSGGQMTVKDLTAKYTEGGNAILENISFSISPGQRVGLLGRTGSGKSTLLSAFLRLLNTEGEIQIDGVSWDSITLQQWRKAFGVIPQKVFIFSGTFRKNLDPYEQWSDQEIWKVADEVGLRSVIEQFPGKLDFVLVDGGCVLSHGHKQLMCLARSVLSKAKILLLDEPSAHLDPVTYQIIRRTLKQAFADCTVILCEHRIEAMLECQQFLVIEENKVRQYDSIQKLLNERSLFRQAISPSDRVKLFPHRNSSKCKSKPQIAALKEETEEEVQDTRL

CCCn1c(C(C)N2CCN(C(=O)Nc3cccc(C#N)c3)CC2)nc2ccccc2c1=O (stereo not shown) [compound 23]
EC50: 25 to 60 µM
Emax: 25 to 100%

CCC(c1nc(N2CCCCC2)c2ccccc2n1)N1CCN(S(=O)(=O)c2ccc(OC)cc2)CC1 (stereo not shown) [compound 336]
EC50: < 10 µM
Emax: > 100%

CC(c1nc2ccccc2c(=O)n1C)N(C)C1CCN(S(=O)(=O)c2ccc(Br)cc2)CC1 (stereo not shown) [compound 306]
EC50: 25 to 60 µM
Emax: 25 to 100%

CC(c1nc2ccc(Cl)cc2c(=O)n1C)N1CCN(C(=O)c2ccc(Cl)cc2)CC1 (stereo not shown) [compound 40]
EC50: 10 to 25 µM
Emax: 25 to 100%

CCCn1c(C(CC)N2CCN(S(=O)(=O)c3ccc(OC)cc3)CC2)nc2ccccc2c1=O (stereo not shown) [compound 342]
EC50: < 10 µM
Emax: 25 to 100%

Cc1ccc(S(=O)(=O)N2CCN(C(C)c3nc4ccc(Cl)cc4c(=O)n3C)CC2)cc1 (stereo not shown) [compound 41]
EC50: 25 to 60 µM
Emax: < 25%

CC(c1nc2ccccc2c(=O)n1C)N1CCN(C(=O)c2ccc(Br)cc2)CC1 (stereo not shown) [compound 55]
EC50: 10 to 25 µM
Emax: < 25%

Cc1ccccc1S(=O)(=O)N1CCN(C(C)c2nc3ccc(Cl)cc3c(=O)n2C)CC1 (stereo not shown) [compound 80]
EC50: 10 to 25 µM
Emax: 25 to 100%

C[C@H](c1nc(N2CCCCC2)c2ccccc2n1)N1CCN(S(=O)(=O)c2ccc(Cl)cc2)CC1 [compound 379]
EC50: < 10 µM
Emax: > 100%

Cc1c(S(=O)(=O)N2CCN(C(C)c3nc4ccccc4c(=O)n3C)CC2)sc2ccc(Cl)cc12 (stereo not shown) [compound 270]
EC50: 25 to 60 µM
Emax: < 25%

Cc1ccccc1S(=O)(=O)N1CCN(C(C)c2nc3ccccc3c(=O)n2C)CC1 (stereo not shown) [compound 69]
EC50: 25 to 60 µM
Emax: 25 to 100%

Cc1cccc(S(=O)(=O)N2CCN(C(C)c3nc4ccccc4c(=O)n3C)CC2)c1 (stereo not shown) [compound 48]
EC50: 25 to 60 µM
Emax: 25 to 100%

CCOC(=O)c1cnc(C(C)N2CCN(S(=O)(=O)c3ccc(OC)cc3)CC2)[nH]c1=O (stereo not shown) [compound 349]
EC50: 25 to 60 µM
Emax: 25 to 100%

Cc1ccc(NC(=O)N2CCN(C(C)c3nc4ccccc4c(=O)n3C)CC2)cc1 (stereo not shown) [compound 56]
EC50: 10 to 25 µM
Emax: < 25%

COc1cccc(S(=O)(=O)N2CCN(C(C)c3nc4ccccc4c(=O)n3C)CC2)c1 (stereo not shown) [compound 249]
EC50: 25 to 60 µM
Emax: 25 to 100%

CC(=O)Nc1ccc(S(=O)(=O)N2CCN(C(C)c3nc4ccccc4c(=O)n3C)CC2)cc1 (stereo not shown) [compound 230]
EC50: 25 to 60 µM
Emax: < 25%

CC(c1nc2ccccc2c(=O)[nH]1)N1CCN(S(=O)(=O)c2ccccc2)CC1 (stereo not shown) [compound 128]
EC50: 10 to 25 µM
Emax: < 25%

CC(c1nc2cccc(Cl)c2c(=O)n1C)N1CCN(S(=O)(=O)c2ccc(Cl)cc2)CC1 (stereo not shown) [compound 104]
EC50: 10 to 25 µM
Emax: < 25%

COc1ccc(S(=O)(=O)N2CCN(C(C)c3nc4ccccc4c(=O)[nH]3)CC2)cc1 (stereo not shown) [compound 130]
EC50: 10 to 25 µM
Emax: < 25%

COc1ccc(S(=O)(=O)N(C)CCN(C(C)c2nc3ccccc3c(=O)n2C)S(=O)(=O)c2ccc(OC)cc2)cc1 (stereo not shown) [compound 200]
EC50: 25 to 60 µM
Emax: < 25%

Cc1ccc(NC(=O)N2CCN(C(C)c3nc4ccc(Cl)cc4c(=O)n3C)CC2)cc1 (stereo not shown) [compound 45]
EC50: 25 to 60 µM
Emax: 25 to 100%

CCCn1c(CN2CCN(S(=O)(=O)c3ccc(Br)cc3)CC2)nc2ccccc2c1=O [compound 152]
EC50: < 10 µM
Emax: > 100%

CC(c1nc2ccccc2c(=O)n1C)N1CCN(S(=O)(=O)c2ccc3oc(=O)ccc3c2)CC1 (stereo not shown) [compound 252]
EC50: 25 to 60 µM
Emax: 25 to 100%

COc1ccc(S(=O)(=O)N2CCC(C(C)c3nc(OC4CCCC4)c4ccccc4n3)CC2)cc1 (stereo not shown) [compound 403]
EC50: < 10 µM
Emax: > 100%

CSc1nccc(-c2ccc(S(=O)(=O)N3CCN(C(C)c4nc5ccccc5c(=O)n4C)CC3)s2)n1 (stereo not shown) [compound 277]
EC50: 25 to 60 µM
Emax: < 25%

CC(c1nc2ccc(Cl)cc2c(=O)n1C)N1CCN(S(=O)(=O)c2ccccc2Cl)CC1 (stereo not shown) [compound 63]
EC50: 10 to 25 µM
Emax: < 25%
